The source of these data is patent publication US20250255845A1, “USE OF INTERLEUKIN (IL)-17A INHIBITOR IN PREPARATION OF MEDICAMENT FOR TREATING INFLAMMATORY DISEASE” (Xiangnan University, priority 2024, published 2025).

One data set concerns RAW264.7 cells. The experiment in a line: CCK-8 cell viability / cytotoxicity. The format is cell-based, mouse. The conditions noted are these: 24 h. How it is done: RAW264.7 cell culture: mouse mononuclear macrophages (RAW264.7, ATCC) are cultured in a complete medium containing 10% fetal bovine serum (FBS), 1% double antibodies (penicillin and streptomycin), and 89% DMEM at 37° C. and 5% CO2. In this experiment, RAW264.7 cells from passages 3 to 8 are used for related test. RAW264.7 cells in the logarithmic growth phase were inoculated into a 96-well plate and the cell density was adjusted to 5×10^3 cells/well. After cultured for 24 h, the cells were stably adhered to the wall. The original complete medium was removed and different concentrations of Tan (5, 10, 20, 40, 80, 160, 320 μM) were added to allow treatment with or without LPS (100 ng/ml) for 24 h. Then, 10 μL of CCK-8 solution was added to each well and incubated at 37° C. for 1 h. The OD value of each sample at 450 nm was detected by a microplate reader, and the cell viability was calculated.

A further data set concerns endothelial cells. Particulars: CN101947215A; cited from earlier work.
Another data set concerns IL-17A mRNA. In words: Real-time fluorescence quantitative PCR, LPS-induced IL-17A mRNA in RAW264.7 cells. The format is cell-based, mouse. How it is done: (§1) RAW264.7 cell culture: mouse mononuclear macrophages (RAW264.7, ATCC) are cultured in a complete medium containing 10% fetal bovine serum (FBS), 1% double antibodies (penicillin and streptomycin), and 89% DMEM at 37° C. and 5% CO2. In this experiment, RAW264.7 cells from passages 3 to 8 are used for related test.
(§2) LPS (100 ng/ml) is added for stimulation, with or without Tan, and the cell supernatant is collected to detect the contents of NO, IL-23, IL-17A, TNF-α, and IL-6 in the cell supernatant. The cell lysate is collected and the protein expressions (STAT3, p-STAT3 (Ser727), and p-STAT3 (Tyr705)) are detected by Western blot. Total cell RNA is extracted and real-time fluorescence quantitative polymerase chain reaction (PCR) is conducted to detect the expression levels of IL-23, IL-17A, TNF-α, and IL-6 mRNA.
RAW264.7 cells were inoculated into 6-well plate and the cell density was adjusted to 5.0×10^6 cells/well. After cultured for 24 h, the cells were stably adhered to the wall. The original medium was removed and different concentrations (5, 10, 20, 40 μM) of Tan were added to allow pretreatment for 1 h. LPS (100 ng/mL) was added and continued to be incubated for 24 h. The commercial TRlcom lysis buffer provided by Jianshi Biotech was added to extract total RNA from cells using the centrifugal column method and immediately reverse transcribed into c-DNA. The fluorescence intensity of each sample was detected according to the instructions of the real-time fluorescence quantitative PCR kit and specific primers (Table 1) (cycle conditions: enzyme activation 95° C. for 3 min, 1 cycle; denaturation 95° C. for 15 s, annealing/extension 60° C. for 1 min, 40 cycles). The mRNA expression level of each group was normalized with the GAPDH expression level, and the relative expression of mRNA was calculated using the 2^−ΔΔCt method.

The next data set relates to STAT3. The experiment in a line: Western blot of STAT3 in LPS-induced RAW264.7 cells. The format is cell-based, mouse. Particulars: 5-40 μM, among treatment groups; P>0.05. How it is done:
as §1, §2
RAW264.7 cells in the logarithmic growth phase were inoculated in 100 mm culture dishes, and the cell density was adjusted to 1.6×10^6 cells/dish. […] The supernatant was collected by centrifugation at 4° C., 12,000 rpm for 5 min, and the protein concentration was determined by BCA method. […] Enhanced Chemiluminescence (ECL) color development was used for detection, and protein band quantification was performed using Image J software.

In the next data set the test system is IL-6 mRNA. In words: Real-time fluorescence quantitative PCR, LPS-induced IL-6 mRNA in RAW264.7 cells. The format is cell-based, mouse. How it is done:
as §1, §2
RAW264.7 cells were inoculated into 6-well plate and the cell density was adjusted to 5.0×10^6 cells/well. […] The fluorescence intensity of each sample was detected according to the instructions of the real-time fluorescence quantitative PCR kit and specific primers (Table 1) (cycle conditions: enzyme activation 95° C. for 3 min, 1 cycle; denaturation 95° C. for 15 s, annealing/extension 60° C. for 1 min, 40 cycles). The mRNA expression level of each group was normalized with the GAPDH expression level, and the relative expression of mRNA was calculated using the 2^−ΔΔCt method.

The mark [1] stands for this setting: 5-40 μM, 24 h, vs LPS, P<0.001, dose-dependent.

The structures appear in SMILES notation.

Regarding `COc1ccc(-c2cc(=O)c3c(OC)c(OC)c(OC)c(OC)c3o2)cc1` [Tan, tangeretin], the “toxicity to RAW264.7 cells (cell viability)” value in the data set with RAW264.7 cells (0-40 μM, P>0.05) was “did not produce significant toxicity”. The “cell viability of RAW264.7 cells” value in the data set on RAW264.7 cells (Tan concentration higher than 40 μM, P<0.05) is given as “decreased”. The “proliferation of endothelial cells / angiogenesis” value in the data set with endothelial cells is reported as “inhibit the proliferation of endothelial cells”. Besides, the “inhibitory effect on IL-17A (FIG. 5B)” value in the data set with IL-17A mRNA is listed as “strong inhibitory effect”. Moreover, the “inhibitory effect on IL-17A mRNA compared with positive control Clo” value in the data set on IL-17A mRNA (40 μM) is “comparable to that of the positive control Clo”. Besides, the “relative expression level of IL-17A mRNA” value with IL-17A mRNA (setting [1]) is on record as “significantly decreased”. For the same compound, the STAT3 protein expression entry in the data set on STAT3 is “no statistically significant change”. The “inhibitory effect on IL-6 mRNA compared with positive control Clo” value in the data set on IL-6 mRNA (40 μM) is “comparable to that of the positive control Clo”. Besides, the “relative expression level of IL-6 mRNA” value with IL-6 mRNA (setting [1]) is listed as “significantly decreased”.
